Measured values as given in patent publication US8450494B2, “Disubstituted benzamide derivatives as glucokinase (GK) activators” (Cadila Healthcare Limited, priority 2010, dated 2013).

Target: T1, glucokinase (GK) enzyme (Homo sapiens, UniProt P35557)
T1 sequence (P35557 1-465): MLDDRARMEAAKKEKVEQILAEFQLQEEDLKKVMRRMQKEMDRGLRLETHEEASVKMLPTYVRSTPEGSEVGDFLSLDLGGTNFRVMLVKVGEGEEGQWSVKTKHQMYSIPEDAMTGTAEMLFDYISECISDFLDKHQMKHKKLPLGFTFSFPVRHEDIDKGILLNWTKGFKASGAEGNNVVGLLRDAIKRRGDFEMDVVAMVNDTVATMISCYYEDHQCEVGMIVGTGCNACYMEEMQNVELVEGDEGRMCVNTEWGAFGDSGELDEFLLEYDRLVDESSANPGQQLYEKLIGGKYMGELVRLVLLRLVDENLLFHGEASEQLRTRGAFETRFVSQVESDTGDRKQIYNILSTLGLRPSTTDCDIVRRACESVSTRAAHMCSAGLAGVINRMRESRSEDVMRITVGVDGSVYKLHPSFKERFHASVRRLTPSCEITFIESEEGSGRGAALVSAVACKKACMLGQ
Assay: In-vitro glucokinase (GK) enzyme activation assay (coupled with glucose-6-phosphate dehydrogenase, absorbance at 340)
Type: biochemical
Conditions: glucose 2.5 mM, ATP 1 mM; for EC50: GK activation; for activity at 0.1 µM / activity at 1 µM / activity at 5 µM / activity at 10 µM: read-out: % of GK activity wrt DMSO
Protocol: The compound of the invention was incubated with glucokinase (GK) enzyme (0.2 units) for 10 minutes in assay buffer at 26° C. After incubation, addition of glucose-6-phosphate dehydrogenase (2.5 units), ATP (1 mM) and glucose (2.5 mM). Absorbance is measured at 340 nm for 15 minutes with 10 second interval using UV transparent plate in kinetic mode on Spectramax-190 at 30° C.

SMILES	EC50	activity at 0.1 µM (compound 0.1 uM)	activity at 1 µM (compound 1 uM)	activity at 5 µM (compound 5 uM)	activity at 10 µM (compound 10 uM)	% of GK activity wrt DMSO (compound 0.1 uM)	% of GK activity wrt DMSO (compound 1 uM)	% of GK activity wrt DMSO (compound 5 uM)	% of GK activity wrt DMSO (compound 10 uM)
COCC(C)Oc1cc(Oc2ccc(-c3nnc(C)o3)cc2)cc(C(=O)Nc2nccs2)c1 (stereo not shown) [Example 1.1, 3-(1-Methoxypropan-2-yloxy)-5-(4-(5-methyl-1,3,4-oxadiazol-2-yl)phenoxy)-N-(thiazol-2-yl)benzamide]	21 nM	276%	309%	316%	309%				
C=CCCOc1cc(Oc2ccc(-c3nnc(C)o3)cc2)cc(C(=O)Nc2nccs2)c1 [Example 1.2, 3-(But-3-enyloxy)-5-(4-(5-methyl-1,3,4-oxadiazol-2-yl)phenoxy)-N-(thiazol-2-yl)benzamide]	81 nM	167%	229%	242%	244%				
COCC(C)Oc1ccc(Oc2ccc(-c3nnc(C)o3)cc2)cc1C(=O)Nc1nccs1 (stereo not shown) [Example 1.3, 2-(1-Methoxypropan-2-yloxy)-5-(4-(5-methyl-1,3,4-oxadiazol-2-yl)phenoxy)-N-(thiazol-2-yl)benzamide]		99.8%	96.8%	110%	107%				
Cc1nnc(-c2ccc(Oc3cc(OC(C)C4CC4)cc(C(=O)Nc4nccs4)c3)cc2)o1 (stereo not shown) [Example 1.4, 3-(1-Cyclopropylethoxy)-5-(4-(5-methyl-1,3,4-oxadiazol-2-yl)phenoxy)-N-(thiazol-2-yl)benzamide]	23 nM	282%	313%	314%	311%				
Cc1nnc(-c2ccc(Oc3cc(OCC4CC4)cc(C(=O)Nc4nccs4)c3)cc2)o1 [Example 1.5, 3-(Cyclopropylmethoxy)-5-(4-(5-methyl-1,3,4-oxadiazol-2-yl)phenoxy)-N-(thiazol-2-yl)benzamide]	88 nM	234%	292%	305%	293%				
Cc1nnc(-c2ccc(Oc3cc(OCC4CCC5(CC5)C4)cc(C(=O)Nc4nccs4)c3)cc2)o1 (stereo not shown) [Example 1.6, 3-(4-(5-Methyl-1,3,4-oxadiazol-2-yl)phenoxy)-5-(spiro[2.4]heptan-5-ylmethoxy)-N-(thiazol-2-yl)benzamide]		134%	178%	183%	165%				
COC(C)CCOc1cc(Oc2ccc(-c3nnc(C)o3)cc2)cc(C(=O)Nc2nccs2)c1 (stereo not shown) [Example 1.7, 3-(3-Methoxybutoxy)-5-(4-(5-methyl-1,3,4-oxadiazol-2-yl)phenoxy)-N-(thiazol-2-yl)benzamide]		164%	228%	245%	236%				
Cc1nnc(-c2ccc(Oc3cc(OCC45CC6CC(CC(C6)C4)C5)cc(C(=O)Nc4nccs4)c3)cc2)o1 [Example 1.9, 3-(4-(5-Methyl-1,3,4-oxadiazol-2-yl)phenoxy)-5-(admantanemethoxy)-N-(thiazol-2-yl)benzamide]						121.83%	137.7%	141.3%	153.4%
Cc1nnc(-c2ccc(Oc3cc(OCC(C)C)cc(C(=O)Nc4nccs4)c3)cc2)o1 [Example 2.5, 3-Isobutoxy-5-(4-(5-methyl-1,3,4-oxadiazol-2-yl)phenoxy)-N-(thiazol-2-yl)benzamide]	103 nM	195%	256%	282%	278%				

The remaining lines, values ahead:

EC50	activity at 0.1 µM (compound 0.1 uM)	activity at 1 µM (compound 1 uM)	activity at 5 µM (compound 5 uM)	activity at 10 µM (compound 10 uM)	% of GK activity wrt DMSO (compound 0.1 uM)	% of GK activity wrt DMSO (compound 1 uM)	% of GK activity wrt DMSO (compound 5 uM)	% of GK activity wrt DMSO (compound 10 uM)	SMILES
14 nM	271%	267%	271%	282%					COC[C@H](C)Oc1cc(Oc2ccc(-c3nnc(C)o3)cc2)cc(C(=O)Nc2nccs2)c1 [Example 2.1, (S)-3-(1-Methoxypropan-2-yloxy)-5-(4-(5-methyl-1,3,4-oxadiazol-2-yl)phenoxy)-N-(thiazol-2-yl)benzamide]
316 nM	146%	178%	193%	192%					Cc1nnc(-c2ccc(Oc3cc(OCC4CCCCC4)cc(C(=O)Nc4nccs4)c3)cc2)o1 [Example 2.2, 3-(Cyclohexylmethoxy)-5-(4-(5-methyl-1,3,4-oxadiazol-2-yl)phenoxy)-N-(thiazol-2-yl)benzamide]
	123%	137%	148%	150%					Cc1csc(NC(=O)c2cc(OCC3CCCCC3)cc(Oc3ccc(-c4nnc(C)o4)cc3)c2)n1 [Example 2.3, 3-(Cyclohexylmethoxy)-5-(4-(5-methyl-1,3,4-oxadiazol-2-yl)phenoxy)-N-(4-methylthiazol-2-yl)benzamide]
64 nM	240%	284%	324%	311%					C=CCOc1cc(Oc2ccc(-c3nnc(C)o3)cc2)cc(C(=O)Nc2nccs2)c1 [Example 2.4, 3-(Allyloxy)-5-(4-(5-methyl-1,3,4-oxadiazol-2-yl)phenoxy)-N-(thiazol-2-yl)benzamide]
					128.2%	196.4%	251.8%	249.3%	Cc1nnc(-c2ccc(Oc3cc(OCC4CCOCC4)cc(C(=O)Nc4nccs4)c3)cc2)o1 [Example 2.6]
	288%	349%	353%	345%					CCOC(=O)Cc1csc(NC(=O)c2cc(Oc3ccc(-c4nnc(C)o4)cc3)cc(OC(C)COC)c2)n1 (stereo not shown) [Example 2.7, Ethyl 2-(2-(3-((1-methoxypropan-2-yl)oxy)-5-(4-(5-methyl-1,3,4-oxadiazol-2-yl)phenoxy)benzamido)thiazol-4-yl)acetate]
					239.5%	323.6%	336.3%	328.9%	COCC(C)Oc1cc(Oc2ccc(-c3nnc(C)o3)cc2)cc(C(=O)Nc2nc(CC(=O)O)cs2)c1 (stereo not shown) [Example 2.8]
	251%	278%	283%	279%					COCC(C)Oc1cc(Oc2ccc(-c3nnc(C)o3)cc2)cc(C(=O)Nc2ncc(C)s2)c1 (stereo not shown) [Example 2.9, 3-((1-Methoxypropan-2-yl)oxy)-5-(4-(5-methyl-1,3,4-oxadiazol-2-yl)phenoxy)-N-(5-methylthiazol-2-yl)benzamide]
	310%	370%	368%	356%					COCC(C)Oc1cc(Oc2ccc(-c3nnc(C)o3)cc2)cc(C(=O)Nc2nc(C)cs2)c1 (stereo not shown) [Example 2.10, 3-((1-Methoxypropan-2-yl)oxy)-5-(4-(5-methyl-1,3,4-oxadiazol-2-yl)phenoxy)-N-(4-methylthiazol-2-yl)benzamide]
	235%	258%	191%	243%					COC[C@H](C)Oc1cc(Oc2ccc(-c3nnc(C)o3)cc2)cc(C(=O)Nc2ncc(C)s2)c1 [Example 2.11, (S)-3-((1-Methoxypropan-2-yl)oxy)-5-(4-(5-methyl-1,3,4-oxadiazol-2-yl)phenoxy)-N-(5-methylthiazol-2-yl)benzamide]
	140%	176%	302%	144%					C=CCCOc1cc(Oc2ccc(-c3nnc(C)o3)cc2)cc(C(=O)Nc2nc(C)cs2)c1 [Example 2.12, 3-(But-3-en-1-yloxy)-5-(4-(5-methyl-1,3,4-oxadiazol-2-yl)phenoxy)-N-(4-methylthiazol-2-yl)benzamide]
	112%	180%	233%	215%					C=CCCOc1cc(Oc2ccc(-c3nnc(C)o3)cc2)cc(C(=O)Nc2ncc(C)s2)c1 [Example 2.13, 3-(But-3-en-1-yloxy)-5-(4-(5-methyl-1,3,4-oxadiazol-2-yl)phenoxy)-N-(5-methylthiazol-2-yl)benzamide]
	116%	184%	241%	215%					C=CCOc1cc(Oc2ccc(-c3nnc(C)o3)cc2)cc(C(=O)Nc2ncc(C)s2)c1 [Example 2.14, 3-(Allyloxy)-5-(4-(5-methyl-1,3,4-oxadiazol-2-yl)phenoxy)-N-(5-methylthiazol-2-yl)benzamide]
	105%	164%	239%	266%					COC[C@@H](C)Oc1cc(Oc2ccc(-c3nnc(C)o3)cc2)cc(C(=O)Nc2nccs2)c1 [Example 2.15, (R)-3-(1-Methoxypropan-2-yloxy)-5-(4-(5-methyl-1,3,4-oxadiazol-2-yl)phenoxy)-N-(thiazol-2-yl)benzamide]
